According to patent US11766416B2, “Compositions of β-aminoisobutyric acid and methods for use thereof” (Nanjing Nutrabuilding Bio-tech Co., Ltd., priority 2020, dated 2023):

Columns and labels:
Format in all cases: in vivo, C57BL/6 male mice
[1] = Blood metabolism-related biomarkers (TG, TCHO, LDL, VLDL) at end of study; conditions: HFD-fed obese mice, 150 mg/kg/day oral, relative to same HFD, with or without exercise, without L-BAIBA
Method: (§1) 36 C57BL/6 male mice aged about 8 weeks, each having a body mass of approximately 21 g, were randomly assigned to six study groups (GA1, GA2, GB1, GB2, GB3, and GB4) of six mice each. Each animal's body weight is measured by a weight scale and recorded.
(§2) The total experimental time is 16 weeks, divided into two periods: an eight-week induction period and an eight-week treatment period.
(§3) Each study group consisted of 6 animals, and treatment details of the individual study groups are given below: • Group A1 (GA1): Normal mice, maintained on a normal diet (ND) for 8 weeks, receiving neither exercise nor L-BAIBA treatment. • Group A2 (GA2): Normal mice, maintained on a normal diet (ND) for 8 weeks, receiving only L-BAIBA treatment and no exercise. • Group B1 (GB1): Obese mice, maintained on a high-fat diet (HFD) for 8 weeks, receiving neither exercise nor L-BAIBA treatment. • Group B2 (GB2): Obese mice, maintained on HFD for 8 weeks, receiving only exercise and no L-BAIBA treatment. • Group B3 (GB3): Obese mice, maintained on HFD for 8 weeks, receiving only L-BAIBA treatment and no exercise. • Group B4 (GB4): Obese mice, maintained on HFD for 8 weeks, receiving both L-BAIBA treatment and exercise.
Animals receiving L-BAIBA received, via oral administration, 150 mg/kg body weight of L-BAIBA, dissolved in 10 mL/kg body weight of ultrapure water, per day. Animals not receiving L-BAIBA were administered 10 mL/kg body weight of ultrapure water per day. All animals were maintained in a pathogen-free condition under a strict 12-hour alternate light/dark cycle with 12-15 cycles/hour of air exchange. All animals were provided with access to their respective feeds and water ad libitum. All animals were housed under controlled laboratory conditions of temperature and humidity at 23±2° C. and 50±10% RH.
At the end of the study described in Example 1, blood was collected from all test groups and various clinical parameters/biomarkers related to metabolism were determined: triglyceride (TG), total cholesterol (TCHO), low-density lipoprotein (LDL) and very low-density lipoprotein (VLDL).

[2] = Body weight of high-fat diet obese mice, measured weekly; conditions: 150 mg/kg/day oral
Method: as §1, §2
as §3, with “and exercise. […]” for “and exercise.”
Throughout the study period, each mouse's body weight was measured weekly by a calibrated electronic digital weighing balance Sartorious BSA32025 (Sartorious AG, Göttingen, Germany). […]

[3] = Muscular (soleus) and hepatic glycogen content at end of study; conditions: HFD-fed obese mice, 150 mg/kg/day oral, relative to same HFD, with or without exercise, without L-BAIBA
Method: as §1, §2, §3
Animals receiving L-BAIBA received, via oral administration, 150 mg/kg body weight of L-BAIBA, dissolved in 10 mL/kg body weight of ultrapure water, per day. […]

[4] = Serum insulin and leptin by ELISA (insulin and leptin resistance); conditions: HFD-fed obese mice, 150 mg/kg/day oral, end of study, relative to same HFD, with or without exercise, without L-BAIBA
Method: as §1, §2
as §3, with “and exercise. […]” for “and exercise.”
At the end of the study described in Example 1, serum levels of insulin and leptin were quantified in all treatment groups by standard ELISA methods. […]

[5] = Oral glucose tolerance test (OGTT) on day 113; conditions: HFD-fed obese mice, 150 mg/kg/day oral, day 113, glucose 2 g/kg oral; relative to same HFD, with or without exercise, without L-BAIBA; FIGS. 6A-7
Method: as §1
(§4) The total experimental time is 16 weeks, divided into two periods: an eight-week induction period and an eight-week treatment period. […]
(§5) Throughout the study described in Example 1, glucose levels in each mouse's blood were measured weekly (week 9-16) on the starting day of every week, before the day's exercise and L-BAIBA dosing activities. […] Blood glucose levels were monitored pre-dose and at 15, 30, 60 and 120 minutes after administration of the glucose solution. […] The area under the curve (AUC) was calculated and expressed as percentage values.

[6] = Weekly blood glucose level (tail vein, glucometer)
Method: as §1, §4, §5

C[C@@H](CN)C(=O)O [L-BAIBA, L-β-aminoisobutyric acid]
blood triglyceride (TG) ([1]; FIG. 2A): lower levels
blood total cholesterol (TCHO) ([1]; FIG. 2B): lower levels
blood low-density lipoprotein (LDL) ([1]; FIG. 2C): lower levels
blood very low-density lipoprotein (VLDL) ([1]; FIG. 2D): lower levels
body weight, GB3 relative to GB1 and GB2 ([2]; HFD obese mice, L-BAIBA only, no exercise (GB3), vs untreated (GB1) and exercise only (GB2), FIG. 1): reduced body weight
body weight ([2]; HFD-fed obese mice, 8-week treatment, with or without exercise, relative to same HFD without L-BAIBA): greater reduction in body weight
hepatic glycogen content ([3]; liver main lobe, FIG. 3A): higher
muscular glycogen content ([3]; soleus muscle, FIG. 3B): higher
insulin resistance (serum insulin) ([4]; FIG. 4A): improved
leptin resistance (serum leptin) ([4]; FIG. 4B): improved leptin resistance
glucose tolerance (OGTT) [5]: better glucose tolerance
blood glucose level of obese mice over the experimental period ([6]; HFD obese mice, 150 mg/kg/day oral, weeks 9-16, compared with normal mice (GA1)): stable level, close to the level of normal mice (GA1)
blood glucose level ([6]; mice receiving 150 mg/kg/day oral, weekly weeks 9-16, GB3 and GB4 relative to GB1 and GB2, FIGS. 5A, 5B): greater reduction in blood glucose level
